# Measured values reported in ChEMBL document CHEMBL2010689 (J Med Chem, 2012).
# Calls of active or inactive are those of the source. The rule behind the calls is not given here.
# What was measured:
# [1] = Metabolic stability in mouse liver S9 fraction assessed as compound remaining after 2 hrs; type: ADME, subcellular; conditions: read-out: Stability
# [2] = molecular target: Cytochrome P450 3A4 (Homo sapiens, UniProt P08684); experiment: Induction of CYP3A4; type: ADME
# [3] = Antitumor activity against human U251MG cells xenografted in athymic nude mouse assessed as tumor growth inhibition at 1 mg/kg, po bid measured on day 29 relative to control; type: functional; conditions: U-251, 696 h, read-out: GI
# [4] = molecular target: Type-1 angiotensin II receptor (Homo sapiens) (UniProt P30556); experiment: Inhibition of angiotensin AT1 at 10 uM
# [5] = Oral bioavailability in Sprague-Dawley rat at 5 mg/kg; type: ADME, organism-based; conditions: in vivo
# [6] = system: A-375; experiment: Antitumor activity against human A375 cells xenografted in athymic nude mouse assessed as tumor growth inhibition at 10 mg/kg, po bid measured on day 29 relative to control; type: functional; conditions: A-375, 696 h, read-out: GI
# [7] = Antiangiogenic activity in HMVEC assessed as inhibition of FGF-induced proliferation; type: functional; conditions: Homo sapiens
# [8] = Antiangiogenic activity in HMVEC assessed as inhibition of VEGF-induced proliferation; type: functional; conditions: Homo sapiens
# [9] = system: HUVEC; experiment: Cytotoxicity against angiopoietin 1-stimulated HUVEC at > = 50 nM; type: cell-based; conditions: human
# [10] = system: A-375; experiment: Antitumor activity against human A375 cells xenografted in po dosed athymic nude mouse assessed as tumor growth inhibition bid measured on day 29 relative to control; type: functional; conditions: A-375, po, 696 h, read-out: MED
# [11] = molecular target: Proto-oncogene tyrosine-protein kinase Src (Homo sapiens, UniProt P12931); experiment: Inhibition of human cSrc using ATP as substrate
# Proto-oncogene tyrosine-protein kinase Src, sequence (P12931 2-536 limits assumed): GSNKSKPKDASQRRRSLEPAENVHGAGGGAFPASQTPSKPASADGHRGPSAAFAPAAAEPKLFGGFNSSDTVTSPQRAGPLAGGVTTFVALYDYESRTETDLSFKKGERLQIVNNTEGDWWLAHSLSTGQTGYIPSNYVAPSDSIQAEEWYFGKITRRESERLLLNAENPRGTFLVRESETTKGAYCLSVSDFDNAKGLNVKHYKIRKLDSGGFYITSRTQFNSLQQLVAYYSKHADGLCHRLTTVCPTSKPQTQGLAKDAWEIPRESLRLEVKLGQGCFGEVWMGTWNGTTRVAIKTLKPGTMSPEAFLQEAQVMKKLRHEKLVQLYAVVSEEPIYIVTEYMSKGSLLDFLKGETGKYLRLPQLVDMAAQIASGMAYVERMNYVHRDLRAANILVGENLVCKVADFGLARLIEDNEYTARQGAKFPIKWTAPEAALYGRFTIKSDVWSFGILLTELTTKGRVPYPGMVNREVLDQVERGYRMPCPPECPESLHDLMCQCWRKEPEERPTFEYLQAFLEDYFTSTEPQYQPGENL
# [12] = molecular target: Tyrosine-protein kinase JAK2 (Homo sapiens) (UniProt O60674); experiment: Inhibition of JAK2 at 1 uM
# Tyrosine-protein kinase JAK2 (Homo sapiens), sequence (O60674 whole entry): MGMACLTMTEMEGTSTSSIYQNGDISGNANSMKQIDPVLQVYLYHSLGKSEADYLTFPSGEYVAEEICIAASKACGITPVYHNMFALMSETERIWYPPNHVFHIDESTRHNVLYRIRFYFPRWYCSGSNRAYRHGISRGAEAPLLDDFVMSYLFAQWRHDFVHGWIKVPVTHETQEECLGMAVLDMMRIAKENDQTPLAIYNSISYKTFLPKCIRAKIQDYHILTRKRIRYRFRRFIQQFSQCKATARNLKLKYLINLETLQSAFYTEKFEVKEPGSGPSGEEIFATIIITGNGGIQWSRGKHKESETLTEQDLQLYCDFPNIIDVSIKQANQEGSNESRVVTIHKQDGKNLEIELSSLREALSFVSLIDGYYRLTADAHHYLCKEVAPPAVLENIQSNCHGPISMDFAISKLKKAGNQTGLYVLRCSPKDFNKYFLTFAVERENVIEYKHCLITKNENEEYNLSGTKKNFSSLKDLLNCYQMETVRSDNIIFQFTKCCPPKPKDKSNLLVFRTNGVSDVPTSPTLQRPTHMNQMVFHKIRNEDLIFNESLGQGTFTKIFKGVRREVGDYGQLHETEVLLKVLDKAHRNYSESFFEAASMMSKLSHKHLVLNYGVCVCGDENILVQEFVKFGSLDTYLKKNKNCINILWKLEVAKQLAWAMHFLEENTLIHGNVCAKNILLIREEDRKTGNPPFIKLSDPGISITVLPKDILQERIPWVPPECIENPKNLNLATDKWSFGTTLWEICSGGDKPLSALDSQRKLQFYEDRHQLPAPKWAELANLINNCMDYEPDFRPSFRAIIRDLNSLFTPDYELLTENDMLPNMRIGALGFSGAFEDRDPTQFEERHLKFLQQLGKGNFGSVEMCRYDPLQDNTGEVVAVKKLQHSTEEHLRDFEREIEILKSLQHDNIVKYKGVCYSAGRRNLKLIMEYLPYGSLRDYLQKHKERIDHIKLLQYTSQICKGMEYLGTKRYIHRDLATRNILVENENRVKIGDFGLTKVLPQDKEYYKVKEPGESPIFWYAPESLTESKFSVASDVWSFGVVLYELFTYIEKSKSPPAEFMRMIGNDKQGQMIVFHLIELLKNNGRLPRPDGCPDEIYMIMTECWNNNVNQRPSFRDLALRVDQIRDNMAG
# [13] = Inhibition of MKK at 1 uM
# [14] = system: HUVEC; experiment: Antiangiogenic activity in HUVEC assessed as inhibition of capillary-tube formation by matrigel assay; type: functional, cell-based; conditions: Homo sapiens
# [15] = molecular target: Voltage-gated inwardly rectifying potassium channel KCNH2 (Homo sapiens, UniProt Q12809); experiment: Inhibition of human Erg expressed CHO cells; type: cell-based
# [16] = Tmax in Sprague-Dawley rat at 5 mg/kg, po; type: ADME, organism-based; design: dose 5 mg/kg, route oral; conditions: in vivo
# [17] = system: A-375; experiment: Antitumor activity against human A375 cells xenografted in athymic nude mouse assessed as complete tumor regression at 0.3 mg/kg, po bid
# [18] = Cmax in athymic nude mouse plasma xenografted with human U251MG cells at 30 mg/kg, po; type: ADME, organism-based, U-251; design: dose 30 mg/kg, route oral
# [19] = molecular target: Adenosine receptor A2a (Homo sapiens, UniProt P29274); experiment: Inhibition of adenosine A2A receptor
# Adenosine receptor A2a, sequence (P29274 whole entry): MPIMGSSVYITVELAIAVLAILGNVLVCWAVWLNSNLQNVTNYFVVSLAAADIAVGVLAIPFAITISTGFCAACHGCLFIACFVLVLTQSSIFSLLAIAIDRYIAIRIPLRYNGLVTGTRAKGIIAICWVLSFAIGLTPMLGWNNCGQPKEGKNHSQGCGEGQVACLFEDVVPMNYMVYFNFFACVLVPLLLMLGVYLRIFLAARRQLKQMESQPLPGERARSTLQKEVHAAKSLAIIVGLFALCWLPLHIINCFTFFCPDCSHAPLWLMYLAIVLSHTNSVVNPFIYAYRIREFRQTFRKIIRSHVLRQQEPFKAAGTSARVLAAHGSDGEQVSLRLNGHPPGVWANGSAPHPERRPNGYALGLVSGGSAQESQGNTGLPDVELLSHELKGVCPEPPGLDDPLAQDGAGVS
# [20] = Antitumor activity against human U251MG cells xenografted in po dosed athymic nude mouse assessed as tumor growth inhibition bid measured on day 29 relative to control; type: functional; conditions: U-251, po, 696 h, read-out: MED
# [21] = system: A-375; experiment: Antitumor activity against human A375 cells xenografted in athymic nude mouse assessed as complete tumor regression at 1 mg/kg, po bid; type: functional
# [22] = system: Aorta; experiment: Antiangiogenic activity in rat aortic rings assessed as inhibition of peak phase microvessel growth; type: functional, tissue-based
# [23] = system: A-375; experiment: Antitumor activity against human A375 cells xenografted in athymic nude mouse assessed as tumor growth inhibition at 3 mg/kg, po bid measured on day 29 relative to control; type: functional; conditions: A-375, 696 h, read-out: GI
# [24] = Volume of distribution in cynomolgus monkey at 0.5 mg/kg, iv; type: ADME, organism-based, Macaca fascicularis; design: dose 0.5 mg/kg, route intravenous; conditions: in vivo
# [25] = Antiangiogenic activity in BAEC assessed as inhibition of VEGF-induced migration; type: functional; conditions: Bos taurus
# [26] = Antiangiogenic activity in HMVEC assessed as inhibition of VEGF-induced migration; type: functional; conditions: Homo sapiens
# [27] = system: Aorta; experiment: Cytotoxicity against rat aortic rings; type: tissue-based
# [28] = Cmax in cynomolgus monkey at 3 mg/kg, po; type: ADME, organism-based, Macaca fascicularis; design: dose 3 mg/kg, route oral; conditions: in vivo
# [29] = molecular target: BDNF/NT-3 growth factors receptor (Homo sapiens, UniProt Q16620); experiment: Inhibition of human TRK-B using ATP as substrate
# [30] = system: Mus musculus; experiment: Toxicity in athymic nude mouse bearing human A375 cells assessed as apparent toxicity at 0.1 to 10 mg/kg, po; type: organism-based, A-375; design: dose 0.1-10 mg/kg, route oral; conditions: in vivo
# [31] = molecular target: ALK tyrosine kinase receptor (Homo sapiens, UniProt Q9UM73); experiment: Inhibition of human ALK using ATP as substrate
# ALK tyrosine kinase receptor, sequence (Q9UM73 whole entry): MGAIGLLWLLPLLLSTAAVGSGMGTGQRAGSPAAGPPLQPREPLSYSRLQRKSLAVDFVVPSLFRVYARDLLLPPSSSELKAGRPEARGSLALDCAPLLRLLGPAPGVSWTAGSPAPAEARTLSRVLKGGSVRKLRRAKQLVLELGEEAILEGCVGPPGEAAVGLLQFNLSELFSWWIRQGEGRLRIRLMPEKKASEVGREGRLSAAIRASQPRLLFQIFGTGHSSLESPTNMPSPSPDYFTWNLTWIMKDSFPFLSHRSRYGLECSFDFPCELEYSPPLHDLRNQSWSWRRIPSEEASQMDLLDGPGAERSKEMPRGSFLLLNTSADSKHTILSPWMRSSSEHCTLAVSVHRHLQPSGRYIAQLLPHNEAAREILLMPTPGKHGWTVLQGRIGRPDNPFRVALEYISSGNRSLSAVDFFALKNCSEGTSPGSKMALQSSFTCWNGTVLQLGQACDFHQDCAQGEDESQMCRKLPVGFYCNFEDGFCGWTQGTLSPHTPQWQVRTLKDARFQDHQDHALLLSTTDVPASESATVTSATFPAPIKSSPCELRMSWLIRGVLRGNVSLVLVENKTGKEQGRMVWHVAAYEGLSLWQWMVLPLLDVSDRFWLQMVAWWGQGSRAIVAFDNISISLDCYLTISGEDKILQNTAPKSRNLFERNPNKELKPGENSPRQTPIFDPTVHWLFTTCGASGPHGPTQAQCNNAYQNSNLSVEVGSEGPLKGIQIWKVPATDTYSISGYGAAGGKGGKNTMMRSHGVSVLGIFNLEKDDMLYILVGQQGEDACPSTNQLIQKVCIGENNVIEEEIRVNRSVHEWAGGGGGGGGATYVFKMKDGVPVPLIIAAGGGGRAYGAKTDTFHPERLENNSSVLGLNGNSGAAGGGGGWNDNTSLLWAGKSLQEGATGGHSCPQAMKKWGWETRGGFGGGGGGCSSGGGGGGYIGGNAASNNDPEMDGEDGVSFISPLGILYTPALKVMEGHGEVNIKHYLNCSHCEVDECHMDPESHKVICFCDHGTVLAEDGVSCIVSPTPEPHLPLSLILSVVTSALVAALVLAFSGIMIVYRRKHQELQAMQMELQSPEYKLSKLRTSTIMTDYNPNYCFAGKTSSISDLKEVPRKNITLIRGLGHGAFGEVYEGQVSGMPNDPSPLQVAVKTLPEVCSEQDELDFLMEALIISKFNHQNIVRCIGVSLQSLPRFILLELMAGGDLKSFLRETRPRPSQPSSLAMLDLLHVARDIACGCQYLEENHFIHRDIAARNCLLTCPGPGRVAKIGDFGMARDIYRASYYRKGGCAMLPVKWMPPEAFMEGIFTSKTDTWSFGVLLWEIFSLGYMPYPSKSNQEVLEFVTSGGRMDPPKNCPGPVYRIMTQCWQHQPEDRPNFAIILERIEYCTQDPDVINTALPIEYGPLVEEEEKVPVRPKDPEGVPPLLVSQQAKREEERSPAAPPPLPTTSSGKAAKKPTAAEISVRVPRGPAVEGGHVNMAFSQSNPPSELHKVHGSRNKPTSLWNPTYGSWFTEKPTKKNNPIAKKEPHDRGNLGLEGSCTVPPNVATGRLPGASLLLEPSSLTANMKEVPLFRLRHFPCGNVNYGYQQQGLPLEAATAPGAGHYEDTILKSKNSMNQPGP
# [32] = system: Mus musculus; experiment: Toxicity in athymic nude mouse bearing human U251MG cells assessed as body weight change at 1 to 30 mg/kg, po; type: organism-based, U-251; design: dose 1-30 mg/kg, route oral; conditions: in vivo
# [33] = Toxicity in dog purkinje fibres assessed as drug-induced change in action potential; type: tissue-based, Canis lupus familiaris, Purkinje fiber
# [34] = molecular target: Glycogen synthase kinase-3 beta (Homo sapiens) (UniProt P49841); experiment: Inhibition of GSK3beta at 1 uM
# [35] = system: HUVEC; experiment: Antiangiogenic activity in HUVEC assessed as inhibition of VEGF-induced proliferation; type: functional, cell-based; conditions: Homo sapiens
# [36] = Tmax in cynomolgus monkey at 3 mg/kg, po; type: ADME, organism-based, Macaca fascicularis; design: dose 3 mg/kg, route oral; conditions: in vivo
# [37] = molecular target: Insulin-like growth factor 1 receptor (Homo sapiens) (UniProt P08069); experiment: Inhibition of IGFR1 at 1 uM
# Insulin-like growth factor 1 receptor (Homo sapiens), sequence (P08069 whole entry, looked up): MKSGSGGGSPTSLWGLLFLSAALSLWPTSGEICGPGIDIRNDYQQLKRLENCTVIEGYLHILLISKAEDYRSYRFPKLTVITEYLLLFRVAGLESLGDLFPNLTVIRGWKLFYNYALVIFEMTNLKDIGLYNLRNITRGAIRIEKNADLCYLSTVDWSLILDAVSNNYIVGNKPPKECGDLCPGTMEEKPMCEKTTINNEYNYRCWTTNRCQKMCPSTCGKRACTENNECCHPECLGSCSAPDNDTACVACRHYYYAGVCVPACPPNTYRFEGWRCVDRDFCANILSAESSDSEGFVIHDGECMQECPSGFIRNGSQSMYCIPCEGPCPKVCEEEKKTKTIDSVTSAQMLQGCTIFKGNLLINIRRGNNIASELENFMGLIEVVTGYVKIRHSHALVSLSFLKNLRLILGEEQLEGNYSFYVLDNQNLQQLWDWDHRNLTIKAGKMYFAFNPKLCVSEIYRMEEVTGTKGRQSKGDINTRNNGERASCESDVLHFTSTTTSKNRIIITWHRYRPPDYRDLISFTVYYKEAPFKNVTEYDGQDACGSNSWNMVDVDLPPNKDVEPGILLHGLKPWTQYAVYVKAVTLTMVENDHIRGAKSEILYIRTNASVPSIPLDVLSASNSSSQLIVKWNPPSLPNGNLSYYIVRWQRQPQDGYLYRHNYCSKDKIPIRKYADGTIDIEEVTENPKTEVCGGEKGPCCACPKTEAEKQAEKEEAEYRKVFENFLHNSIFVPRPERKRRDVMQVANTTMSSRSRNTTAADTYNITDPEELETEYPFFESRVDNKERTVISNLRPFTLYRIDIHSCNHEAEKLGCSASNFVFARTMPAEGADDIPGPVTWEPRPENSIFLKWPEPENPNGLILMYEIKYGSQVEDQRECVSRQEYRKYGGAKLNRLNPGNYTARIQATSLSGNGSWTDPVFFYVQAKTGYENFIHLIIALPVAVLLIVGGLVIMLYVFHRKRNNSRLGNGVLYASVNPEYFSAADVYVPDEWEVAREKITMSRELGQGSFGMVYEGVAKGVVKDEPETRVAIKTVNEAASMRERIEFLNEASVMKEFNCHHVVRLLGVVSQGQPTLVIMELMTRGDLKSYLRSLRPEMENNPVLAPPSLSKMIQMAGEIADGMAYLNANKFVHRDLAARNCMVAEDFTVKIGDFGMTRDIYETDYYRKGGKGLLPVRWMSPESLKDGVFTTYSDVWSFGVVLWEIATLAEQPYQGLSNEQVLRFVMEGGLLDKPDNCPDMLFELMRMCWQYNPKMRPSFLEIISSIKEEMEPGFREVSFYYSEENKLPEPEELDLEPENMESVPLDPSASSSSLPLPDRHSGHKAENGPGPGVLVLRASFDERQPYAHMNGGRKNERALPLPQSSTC
# [38] = molecular target: Platelet-derived growth factor receptor alpha (Homo sapiens, UniProt P16234); experiment: Inhibition of human PDGFRalpha using ATP as substrate
# [39] = molecular target: Substance-K receptor (Homo sapiens) (UniProt P21452); experiment: Inhibition of neurokinin NK2 receptor at 10 uM
# [40] = Plasma protein binding in human; type: ADME, cell-free; conditions: read-out: PPB (converted)
# [41] = Inhibition of IRK at 1 uM
# [42] = Antiangiogenic activity in HMVEC assessed as inhibition of FGF-induced survival; type: functional, Homo sapiens
# [43] = Toxicity in dog purkinje fibres assessed as drug-induced QT interval change; type: tissue-based, Canis lupus familiaris, Purkinje fiber
# [44] = system: Mus musculus; experiment: Toxicity in athymic nude mouse bearing human A375 cells assessed as body weight change at 0.1 to 10 mg/kg, po; type: organism-based, A-375; design: dose 0.1-10 mg/kg, route oral; conditions: in vivo
# [45] = system: P388; experiment: Antitumor activity against mouse P388 cells xenografted in DBA/2 mouse assessed as mean survival at 30 mg/kg, po qd for 14 days followed by readministeration after 7 days; type: functional
# [46] = AUC in cynomolgus monkey at 3 mg/kg, po; type: ADME, organism-based, Macaca fascicularis; design: dose 3 mg/kg, route oral; conditions: plasma
# [47] = Antiangiogenic activity in BAEC assessed as inhibition of VEGF-induced survival; type: functional, Bos taurus
# [48] = molecular target: Tyrosine-protein kinase BTK (Homo sapiens, UniProt Q06187); experiment: Inhibition of human BTK using ATP as substrate
# [49] = molecular target: Vascular endothelial growth factor receptor 1 (Homo sapiens, UniProt P17948); experiment: Inhibition of human VEGFR1 using ATP as substrate
# [50] = Antiangiogenic activity in HMVEC assessed as inhibition of FGF-induced migration; type: functional; conditions: Homo sapiens
# [51] = Antitumor activity against human U251MG cells xenografted in athymic nude mouse assessed as tumor growth inhibition at 3 mg/kg, po bid measured on day 29 relative to control; type: functional; conditions: U-251, 696 h, read-out: GI
# [52] = Half life in Sprague-Dawley rat at 5 mg/kg, po; type: ADME, organism-based; design: dose 5 mg/kg, route oral; conditions: in vivo
structure (smiles),measurement,setting,value
CC(C)Cn1c2ccc(Nc3ncccn3)cc2c2c3c(c4c(c21)CCc1nn(C)cc1-4)C(=O)NC3 [CEP-11981],remaining at 2 h,[1],65%
same,Activity,[2],Not Active
same,inhibition in vivo at 1 mg/kg,[3],43%
same,inhibition,[4],> 80%
same,bioavailability,[5],44%
same,inhibition in vivo at 10 mg/kg,[6],98%
same,EC50,[7],8 nM
same,EC50,[8],8 nM
same,Activity,[9],Non-toxic
same,minimal effective dose,[10],0.3 mg/kg
same,IC50,[11],37 nM
same,inhibition,[12],Active
same,inhibition,[13],Active
same,EC50,[14],2 nM
same,IC50,[15],20000 nM
same,Tmax,[16],2 h
same,Activity,[17],10%
same,Cmax,[18],1200 ng/mL
same,Ki,[19],500 nM
same,minimal effective dose,[20],3 mg/kg
same,Activity,[21],20%
same,Activity,[22],Dose-dependent effect
same,EC50,[22],4 nM
same,inhibition in vivo at 3 mg/kg,[23],90%
same,Vd,[24],2.6 L/kg
same,EC50,[25],8 nM
same,EC50,[26],8 nM
same,Activity,[27],Non-toxic
same,Cmax,[28],491 ng/mL
same,IC50,[29],5 nM
same,Activity,[30],Non-toxic
same,IC50,[31],132 nM
same,Activity,[32],Non-toxic
same,Activity,[33],Non-toxic
same,inhibition,[34],Active
same,EC50,[35],8 nM
same,Tmax,[36],2 h
same,inhibition,[37],Active
same,IC50,[38],246 nM
same,inhibition,[39],> 80%
same,fraction unbound,[40],0.05
same,inhibition,[41],Active
same,EC50,[42],8 nM
same,Activity,[43],Non-toxic
same,Activity,[44],Non-toxic
same,MSD,[45],23.5 days
same,AUC,[46],2480 ng·h/mL
same,EC50,[47],8 nM
same,IC50,[48],93 nM
same,IC50,[49],3 nM
same,EC50,[50],8 nM
same,inhibition in vivo at 3 mg/kg,[51],61%
same,half-life,[52],3 h
